Measurements as given in patent publication US6365634B1, “Naturally occurring compounds and their derivatives as cyclooxygenase 2 and/or 5-lipoxygenase inhibitors” (C-P Technology Limited Partnership, priority 1997, dated 2002).

Legend:
[1] = system: human keratinocytes; test: Lactate dehydrogenase (LDH) release toxicity assay; type: cell-based; details: highest value of any culture treated with 5, 1.0, 0.2 or 0.04 uM
Protocol: To address the possibility that the inhibition of both PGE2 and LTB4 production by human keratinocytes treated with dehydroabietic acid methyl ester was […], a cell lactate dehydrogenase toxicity assay (Fisher Scientific) was performed. Briefly, lactate dehydrogenase (LDH) is found intracellularly and is released only in response to toxic stimuli and/or cell death. The amount of LDH released into the media of cultured cells is indicative of the degree of toxicity occurring in that culture. To do the assay, 48-well plates of cultured human keratinocytes (as described above for the PGE2 assay) were prepared and treated with the same concentrations of dehydroabietic acid methyl ester as described above for the PGE2 and LTB4 assays. One hour prior to harvesting culture media samples from wells treated with dehydroabietic acid methyl ester, duplicate wells were treated with a cell lysis buffer (Fisher Scientific) that caused 100% cell death to occur in the treated wells. After culture media samples were collected from all wells, the amount of LDH present in each was determined using a colorometric assay (Fisher Scientific). […] The amount of LDH released into the media of cultures treated with dehydroabietic acid methyl ester as well as vehicle-control media was determined using the colorometric assay and expressed as a percentage of that released by the 100% cell death wells.
To address the possibility that the inhibition of PGE2 production by human keratinocytes treated with 4-cumylphenol was due to toxicity, a cell lactate dehydrogenase toxicity assay (Fisher Scientific) was performed. […] After culture media samples were collected from all wells, the amount of LDH present in each was determined using a colorometric assay (Fisher Scientific). […] The amount of LDH released into the media of cultures treated with dehydroabietic acid methyl ester as well as vehicle-control media was determined using the colorometric assay and expressed as a percentage of that released by the 100% cell death wells. […]

[2] = molecular target: T1, rabbit reticulocyte 15-LO (Oryctolagus cuniculus, UniProt P12530); test: 15-LO biochemical assay (15-HETE formation, TLC quantitation); details: for Percent Inhibition of 15-LO: negative = increased activity
T1 construct: 24.5 units of a rabbit reticulocyte 15-LO preparation; tissue Oxford Biochemicals; host or cells: rabbit reticulocytes
T1 sequence (P12530 1-663): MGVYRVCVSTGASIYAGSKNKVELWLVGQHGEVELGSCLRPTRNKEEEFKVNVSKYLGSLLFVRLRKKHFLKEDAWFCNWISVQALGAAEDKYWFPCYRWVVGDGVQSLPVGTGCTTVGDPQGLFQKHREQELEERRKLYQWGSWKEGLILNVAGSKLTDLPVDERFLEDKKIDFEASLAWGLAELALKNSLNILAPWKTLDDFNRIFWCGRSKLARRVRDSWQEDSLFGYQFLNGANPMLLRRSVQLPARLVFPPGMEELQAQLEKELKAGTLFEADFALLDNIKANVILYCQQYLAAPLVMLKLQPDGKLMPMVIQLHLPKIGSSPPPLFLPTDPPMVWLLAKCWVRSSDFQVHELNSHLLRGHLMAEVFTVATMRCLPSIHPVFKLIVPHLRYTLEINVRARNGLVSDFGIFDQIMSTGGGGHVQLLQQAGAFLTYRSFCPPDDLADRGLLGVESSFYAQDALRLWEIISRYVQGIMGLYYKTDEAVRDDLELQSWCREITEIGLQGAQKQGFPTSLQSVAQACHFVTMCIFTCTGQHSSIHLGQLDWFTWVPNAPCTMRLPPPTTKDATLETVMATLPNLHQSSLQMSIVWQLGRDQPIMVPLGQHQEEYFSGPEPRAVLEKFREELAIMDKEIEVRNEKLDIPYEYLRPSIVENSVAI
Protocol: The inhibitory activity of dehydroabietic acid methyl ester was assessed by performing biochemical assays that utilized 1) human recombinant COX II, 2) ovine COX I, and 3) rabbit reticulocyte 15-LO. In all biochemical assays dehydroabietic acid methyl ester and inhibitory control compounds were used at a final concentration of […]. The COX I and II biochemical assays have been previously described in this document (see COX I and II Assays Used to Test X-8 Fractions and Purified Compounds, Example 3). The 15-LO assay was done using a modified version of a previously reported method (Corey, E. J., Shih, C., and Cashman, J. R. (1983) Proc. Natl. Acad. Sci. v80, p3,581; Sigal, E., Grunberger, D., Cashman, J. R., Craik, C. S., Caughey, G. H., and Nadel, J. A. (1988) Biochem. Biophys. Res Comm. v150(1), p376). Briefly, 24.5 units of a rabbit reticulocyte 15-LO preparation (corresponding to 7 ug total protein)(Oxford Biochemicals) was placed in potassium phosphate buffer (10 mM, pH 6.0). Dehydroabietic acid methyl ester was added to give a final concentration of 250 uM. The reaction was initiated by the addition of ^3H-AA (50 uM final concentration) and maintained at 37° C., for 5 min. The reaction was stopped by the addition of ice-cold methanol containing NaCNBH3 (to reduce peroxides). A portion of each reaction solution was then separated via TLC (250 μm PK6F 60 Å silica gel preparative TLC plate, Whatman), co-spotted with AA and 15-HETE (a metabolic product of 15-LO) and developed in hexane/ether/acetic acid (50:50:1) to separate 15-HETE from AA (Rf=0.29 and 0.5, respectively). Bands on the TLC plates were then visualized by I2 and scraped for quantitation. As with the COX I and II assays, percent inhibition was calculated based on a comparison between incubations performed in the presence and absence of dehydroabietic acid methyl ester (see “Fractionation and Bioassay Analysis of Fractions Derived from Extract-8” above).

Compound	percent toxicity (LDH released) versus the 100% cell death control [1]	increase of the enzymatic activity of 15-LO ([2]; 250 uM)	Percent Inhibition of 15-LO ([2]; final concentration of 250 uM)	Percent Inhibition of 15-LO ([2]; pure 4-cumylphenol, concentration not given)
COC(=O)[C@]1(C)CCC[C@]2(C)c3ccc(C(C)C)cc3CC[C@@H]12 [Dehydroabietic acid methyl ester, dehydroabietic acid methyl ester]	≤ 12%	over 93%	−93.6%	–
CC(C)(c1ccccc1)c1ccc(O)cc1 [4-Cumylphenol, 4-cumylphenol]	≤ 12.7%	–	–	−40.0%
